Reference: article PMC8820820, “Feasibility and safety of targeting mitochondria for cancer therapy – preclinical characterization of gamitrinib, a first-in-class, mitochondriaL-targeted small molecule Hsp90 inhibitor” (Cancer Biology & Therapy, 2022)

Assays:
[1] = molecular target: T1, CYP1A2 (Homo sapiens, UniProt P05177); test: CYP inhibition in liver microsomes; format: in vitro ADME
T1 construct: tissue Bioreclamation IVT; host or cells: pooled human liver microsomes
T1 sequence (P05177 1-516): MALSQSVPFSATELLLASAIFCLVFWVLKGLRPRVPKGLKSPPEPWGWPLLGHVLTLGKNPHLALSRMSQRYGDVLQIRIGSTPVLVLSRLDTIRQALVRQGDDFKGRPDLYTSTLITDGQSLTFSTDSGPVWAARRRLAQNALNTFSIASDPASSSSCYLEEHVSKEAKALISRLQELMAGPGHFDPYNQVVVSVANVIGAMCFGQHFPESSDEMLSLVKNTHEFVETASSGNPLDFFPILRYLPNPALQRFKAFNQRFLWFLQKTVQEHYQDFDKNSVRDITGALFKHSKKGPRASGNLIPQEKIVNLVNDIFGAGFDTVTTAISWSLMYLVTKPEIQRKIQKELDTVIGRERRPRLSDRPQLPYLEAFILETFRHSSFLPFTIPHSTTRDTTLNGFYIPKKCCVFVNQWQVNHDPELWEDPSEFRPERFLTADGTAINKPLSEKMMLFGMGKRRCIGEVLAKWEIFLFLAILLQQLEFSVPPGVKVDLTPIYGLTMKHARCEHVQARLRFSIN
From the text: CYP inhibition in liver microsomes.

[2] = test system: Sprague-Dawley rats; test: Toxicity in Sprague-Dawley rats; format: in vivo; conditions: for reduction in mean body weights: male rats, fully recoverable, not adverse
Experimental: Ninety-six male and female Sprague-Dawley rats (6–7 weeks old) were received from Charles River Laboratories (Raleigh, NC) catheterized via a femoral vein prior to arrival. Animals were acclimated in individual stainless-steel cages with access to water and Certified Rodent Diet #2014 C (Envigo RMS) ad libitum for 6 d prior to study initiation. Environmental controls were set to maintain a temperature range of 20 to 26°C, a relative humidity range of 30 to 70%, eight or greater air changes/h, and a 12-h light/dark cycle. Animals were infused with sterile isotonic (0.9%) saline for a minimum of 4 d (0.20 mL/h for males or 0.15 mL/h for females) during the predose phase. At initiation of dosing, animals were 8 to 9 weeks old, and body weights ranged from 283 to 341 g for males and 188 to 238 g for females. Gamitrinib formulated as indicated above was administered by IV infusion on d 4, 8, 11, 15, 18, 22, 25, and 29 of the dosing phase at 1, 10, 25 mg/kg/dose and dose volume of 5 mL/kg. The vehicle control administered with the same schedule contained 2.5% DMSO, 0.125% polysorbate 80, 0.031% lecithin, 1.25% sucrose and 4.375% dextrose. Animals were checked twice daily throughout the duration of the study for mortality, abnormalities, and signs of pain or distress. Detailed observations were conducted for each animal up to two times during the predose phase and for each toxicity animal prior to dosing on d 1, 8, 15, 22, and 29 of the dosing phase and on d 1, 7, and 14 of the recovery phase. Blood samples were collected on d. 1, 4 and 29 of the dosing phase 5 min, 1 h and 24 h post-dose, maintained on chilled cryoracks and centrifuged within 1 h of collection. Tissue samples harvested from each animal were embedded in paraffin, sectioned, and slides were prepared and stained with hematoxylin and eosin.

[3] = test system: Caco-2 intestinal cells; test: Bidirectional Caco2 cell monolayer permeability; conditions: Caco-2
Experimental: Caco-2 and HEK293 cells were obtained from the American Type Culture Collection (ATCC, Manassas, VA) and grown in culture according to the supplier’s specifications. In some experiments, HEK293 cells were stably transfected with hERG cDNA, and polyclonal cultures were maintained in the presence of 250 µg/ml geneticin (G418).
Bidirectional Caco2 cell monolayer permeability. Caco2 cells (2x10^4/well) were seeded onto apical chambers of a 24-multiwell insert plate and incubated at 37°C in 5% CO2. After 21 d, the transepithelial electrical resistance (TEER) in ohms was read for each insert well as a quality control for monolayer integrity (>900 ohms or 300 ohms cm^2). The cell monolayers were incubated with 400 µL transport buffer on the apical (A) and 1.2 mL on the basolateral (B) sides for 30 min. After preincubation, dosing solution was added to the apical (400 µL, A-to-B, donor) or basolateral sides (1.2 mL, B-to-A, donor) or receiving buffer to the apical (400 µL, B-to-A, receiver) or basolateral sides (1.2 mL, A-to-B, receiver) for 90 min at 37°C in 5% CO2. […] Papp’A>B (nm/s) was calculated with Equation 1.
Papp Efflux Ratio (ER) was calculated with Equation 2.
ER=Papp,B>APapp,A>BEquation 2: […]
Propranolol (high permeability marker, non-P-gp substate) and digoxin (P-gp substrate) were used as controls.

[4] = Stability in human plasma

COC1C=CC=C(C)C(=O)NC2=CC(=O)C(NCCCCCC[P+](c3ccccc3)(c3ccccc3)c3ccccc3)=C(CC(C)CC(OC)C(O)C(C)C=C(C)C1OC(N)=O)C2=O.F[P-](F)(F)(F)(F)F (centres unmarked) [Gamitrinib]
IC50 [1]: 32.9 µM
reduction in mean body weights ([2]; 10 mg/kg/dose): −5.5%
reduction in mean body weights ([2]; 25 mg/kg/dose): −5.7%
urinalysis and ophthalmic findings ([2]; rats): No effects on urinalysis or ophthalmic changes
serum urea nitrogen (UN) and creatinine concentrations ([2]; rats, 25 mg/kg/dose): Minimally to mildly higher
kidney microscopic findings ([2]; rats, 25 mg/kg/dose, persisted to end of recovery): tubular degeneration/regeneration
non-observed adverse effect level (NOAEL) ([2]; rats, IV twice weekly for 29 d): 1 mg/kg/dose
severely toxic dose in 10% of the animals (STD 10) ([2]; rats, IV twice weekly for 29 d): 10 mg/kg/dose
alterations in clinical chemistry parameters ([2]; rats, highest dose level tested): mildly to moderately higher neutrophil, and platelet (Plts) counts, minimally prolonged partial thromboplastin time (PT), lower albumin, higher globulin, and alkaline phosphatase concentrations
Gamitrinib-related clinical observations ([2]; rats, ≥10 mg/kg/dose): inguinal swelling, piloerection, hypoactivity, and sensitivity to touch at the infusion site
microscopic findings at infusion site ([2]; rats, ≥10 mg/kg/dose, both sexes, persisted through recovery): mixed cell inflammation at the catheter/infusion site
Gamitrinib-related mortality ([2]; toxicity animals, 10 mg/kg/dose): one male
Gamitrinib-related mortality ([2]; toxicity animals, 25 mg/kg/dose, severe inflammation and marked hemorrhage at infusion site): two males, one female
Gamitrinib-related mortality ([2]; toxicokinetic animals, 10 mg/kg/dose): two toxicokinetic females
Gamitrinib-related mortality ([2]; toxicokinetic animals, 25 mg/kg/dose): one toxicokinetic female
Papp Efflux Ratio (ER) [3]: 5.77
Papp, A>B [3]: 1.90 nm/s
Papp, B>A [3]: 10.94 nm/s
Pexact Efflux Ratio [3]: 5.54
Pexact,A>B [3]: 1.97 nm/s
Pexact,B>A [3]: 10.92 nm/s
average recovery [4]: 82.8 ± 3%
stability in human plasma [4]: 91.4%
